Experimental findings from patent US10604512B2, “3-(1H-indol-2-yl)-1H-indazoles and therapeutic uses thereof” (Samumed, LLC, priority 2015, dated 2020) are described below.

Type in all cases: cell-based
For one experiment, the system named is SW480 colon cancer cells. The experiment can be described thus: Cell viability assay (CellTiter-Blue) in SW480 colon cancer cells. The following applies: Homo sapiens, 96 h, four days, CellTiter-Blue. The procedure: Representative compounds were screened using the following assay procedure to assess the effect on cell viability as described below.
Each compound was dissolved in DMSO as a 10 mM stock and used to prepare compound source plates. Serial dilution (1:3, 8-point dose-response curves from 10 μM to 0.0045 μM) and compound transfer was performed using the ECHO 550 (Labcyte, Sunnyvale, Calif.) into 96-well clear bottom, black-walled plates (Corning-Costar).
Approximately 2×10^3 SW480 colon cancer cells were seeded into each well and allowed to incubate in the presence or absence of compound for four days at 37° C./5% CO2. Eight replicates of DMSO-treated cells served as controls and cells treated with compound were performed in duplicate.
After incubation, 20 μL of CellTiter-Blue (Promega) was added to each well allowed to incubate for approximately 3 hours. This reagent was a buffered solution which contains resazurin, metabolically active cells were able to reduce rezarurin (blue) into resorufin (pink) which was highly fluorescent. This measured fluorescence was used as a readout for cell viability.
After incubation, the plates were read at Ex 560 nm Em 590 nm (Cytation 3, BioTek). Dose-response curves were generated and EC50 concentration values were calculated using non-linear regression curve fit in the GraphPad Prism (San Diego, Calif.) or Dotmatics' Studies Software (Bishops Stortford, UK). For EC50 of >10 μM, the percent inhibition at 10 μM is provided.
(The colour change of resazurin is a common sign of viable cells or microbes.)

The next experiment concerns IL-6. The experiment can be described thus: Inhibition of IL-6 in LPS-stimulated THP-1 human monocyte cells (HTRF). The following applies: IL-6 inhibition, LPS-stimulated THP-1 cells, HTRF. The procedure:
Human monocyte cell line (THP-1 cells; Catalog # TIB-202, ATCC, Manassas, Va.) were cultured in Roswell Park Memorial Institute (RPMI) 1640 Medium (Catalog #21870-100, Buffalo, N.Y.) with 1% L-glutamine, 1% HEPES, 1% Sodium Pyruvate, 2% Sodium Bicarbonate supplemented with 100 units/mL penicillin, 50 μg/mL streptomycin, 2-mercaptoethanol (0.05 mM) [basal medium] and 10% fetal bovine serum (Catalog #16140089, Life Technologies, Carlsbad, Calif.) at 37° C. and 5% CO2.
THP-1 cells were cultured in basal media with 1% FBS for 24 hours before the start of the assay. Each compound was dissolved in DMSO as a 10 mM stock and used to prepare compound source plates. Serial dilution (1:3, 10-point dose-response curves starting from 10 μM) and compound transfer was performed using the ECHO 550 (Labcyte, Sunnyvale, Calif.) into 384-well white low volume assay plates (Greiner Bio-One) with appropriate DMSO backfill for a final DMSO concentration of 0.1%. THP-1 cells were plated at 5000 cells/well in the 384-well plates and incubated at 37° C. for 2 h. 500 ng/mL of LPS was added after 2 hours and cells were incubated for another 22 hours at 37° C. Plates were spun in a centrifuge for 1 minute at […] and a mixture of anti-IL6 XL665, and anti-IL6 Cryptate diluted in reconstitution buffer (Cisbio Inc.) was added to each well. Following incubation for 3 hrs at room temperature, Homogeneous Time-Resolved Fluorescence (HTRF) was measured using the Envision (Perkin Elmer) at 665 nm and […]. The ratio of fluorescence at 665 nm to 620 nm was used as a readout for IL6 quantification. All samples were processed in duplicate. Readings were normalized to DMSO treated cells and normalized activities were utilized for EC50 calculations using the dose-response log (inhibitor) vs. response variable slope (four parameters) nonlinear regression feature available in GraphPad Prism 5.0 (or Dotmatics). For EC50 of >10 μM, the percent inhibition at 10 μM is provided.
On the technique in general: In TR-FRET formats the signal depends on donor and acceptor labels being close together.

Experiment [1] has as its system Primary human fibroblasts derived from IPF patients (LL29 cells) treated with TGF-β1. Nature of the experiment: Inhibition of the fibrotic process: αSMA staining in TGF-β1-treated primary human fibroblasts from IPF patients (LL29 cells). The conditions noted are these: Fibroblast, 96 h, % αSMA-positive LL29 cells, TGF-β1 20 ng/mL, 4 days. The text has this:
Representative compounds were screened using primary human fibroblasts (derived from IPF patients) treated with TGF-β1 to determine their ability to inhibit the fibrotic process.
Primary human fibroblasts derived from IPF patients (LL29 cells) [^1Xiaoqiu Liu, et. al., “Fibrotic Lung Fibroblasts Show Blunted Inhibition by cAMP Due to Deficient cAMP Response Element-Binding Protein Phosphorylation”, Journal of Pharmacology and Experimental Therapeutics (2005), 315(2), 678-687; ^2Watts, K. L., et. al., “RhoA signaling modulates cyclin D1 expression in human lung fibroblasts; implications for idiopathic pulmonary fibrosis”, Respiratory Research (2006), 7(1), 88] were obtained from American Type Culture Collection (ATCC) and expanded in F12 medium supplemented with 15% Fetal Bovine Serum and Penicillin/Streptomycin.
Each compound was dissolved in DMSO as a 10 mM stock and used to prepare compound source plates. Serial dilution (1:2, 11-point dose-response curves from 10 μM to […]) and compound transfer was performed using the ECHO 550 (Labcyte, Sunnyvale, Calif.) into 384-well clear bottom assay plates (Greiner Bio-One) with appropriate DMSO backfill for a final DMSO concentration of 0.1%. LL29 cells are plated at 1,500 cells/well in 80 μL/well F12 medium supplemented with 1% Fetal Bovine Serum. One hour after addition of the cells, TGF-β1 (Peprotech; 20 ng/mL) was added to the plates to induce fibrosis (ref 1 and 2 above). Wells treated with TGF-β1 and containing DMSO were used as controls. Cells were incubated at 37° C. and 5% CO2 for 4 days. Following incubation for 4 days, SYTOX green nucleic acid stain (Life Technologies [Thermo Fisher Scientific]) was added to the wells at a final concentration of 1 μM and incubated at room temperature for 30 min. Cells were then fixed using 4% formaldehyde (Electron Microscopy Sciences), washed 3 times with PBS followed by blocking and permeabilization using 3% Bovine Serum Albumin (BSA; Sigma) and 0.3% Triton X-100 (Sigma) in PBS. Cells were then stained with antibody specific to α-smooth muscle actin (αSMA; Abcam) (ref 1 and 2 above) in 3% Bovine Serum Albumin (BSA; Sigma) and 0.3% Triton X-100 (Sigma) in PBS, and incubated overnight at 4° C. Cells were then washed 3 times with PBS, followed by incubation with Alexa Flor-647 conjugated secondary antibody (Life Technologies [Thermo Fisher Scientific]) and DAPI at room temperature for 1 hour. Cells were then washed 3 times with PBS and plates were sealed for imaging. αSMA staining was imaged by excitation at 630 nm and emission at 665 nm and quantified using the Compartmental Analysis program on the CellInsight CX5 (Thermo Scientific). Dead or apoptotic cells were excluded from analysis based on positive SYTOX green staining. % of total cells positive for αSMA were counted in each well and normalized to the average of 11 wells treated with TGF-β1 on the same plate using Dotmatics' Studies Software. The normalized averages (fold change over untreated) of 3 replicate wells for each compound concentration were used to create dose-responses curves and EC50 values were calculated using non-linear regression curve fit in the Dotmatics' Studies Software. For EC50 of >10 μM, the percent inhibition at 10 μM is provided.

Experiment [2] relates to Wnt activity (Sp5-Luc reporter, TCF/LEF binding sites) in SW480 colon carcinoma cells. Nature of the experiment: Screening assay for Wnt activity: Sp5-Luc reporter gene assay in stably transduced SW480 colon carcinoma cells. The conditions noted are these: Homo sapiens, overnight incubation, 10-point curve from 10 μM. The source says:
The screening assay for Wnt activity is described as follows. Reporter cell lines can be generated by stably transducing cancer cell lines (e.g., colon cancer) or primary cells (e.g., IEC-6 intestinal cells) with a lentiviral construct that includes a Wnt-responsive promoter driving expression of the firefly luciferase gene.
SW480 colon carcinoma cells were transduced with a lentiviral vector expressing luciferase with a human Sp5 promoter consisting of a sequence of eight TCF/LEF binding sites. SW480 cells stably expressing the Sp5-Luc reporter gene and a hygromycin resistance gene were selected by treatment with 150 μg/mL of hygromycin for 7 days. These stably transduced SW480 cells were expanded in cell culture and used for all further screening activities. Each compound was dissolved in DMSO as a 10 mM stock and used to prepare compound source plates. Serial dilution (1:3, 10-point dose-response curves starting from 10 μM) and compound transfer was performed using the ECHO 550 (Labcyte, Sunnyvale, Calif.) into 384-well white solid bottom assay plates (Greiner Bio-One) with appropriate DMSO backfill for a final DMSO concentration of 0.1%. For Sp5-Luc reporter gene assays, the cells were plated at 4,000 cells/well in 384-well plates with medium containing 1% fetal bovine serum and incubated overnight at 37° C. and 5% CO2. Following incubation, 20 μl of BrightGlo luminescence reagent (Promega) was added to each well of the 384-well assay plates. The plates were placed on an orbital shaker for 2 min and then luminescence was quantified using the Envision (Perkin Elmer) plate reader. Readings were normalized to DMSO only treated cells, and normalized activities were utilized for EC50 calculations using the dose-response log (inhibitor) vs. response variable slope (four parameters) nonlinear regression feature available in GraphPad Prism 5.0 (or Dotmatics). For EC50 of >10 μM, the percent inhibition at 10 μM is provided.

The term EC50 denotes the concentration that produces a half-maximal response. A higher EC50 goes with lower potency in that assay. With `CC(C)Nc1cncc(-c2ccc3[nH]nc(-c4cc5c(-c6cccnc6)cccc5[nH]4)c3c2)c1` [Compound 96, N-Isopropyl-5-(3-(4-(pyridin-3-yl)-1H-indol-2-yl)-1H-indazol-5-yl)pyridin-3-amine], the EC50 with SW480 colon cancer cells was determined as 1140 nM; with IL-6, 163 nM; in experiment [1] it was 162 nM; in experiment [2], 100 nM.
The corresponding values for `CC(C)(C)CC(=O)Nc1cncc(-c2ccc3[nH]nc(-c4cc5c(-c6cccnc6)cccc5[nH]4)c3c2)c1` [Compound 100, 3,3-Dimethyl-N-(5-(3-(4-(pyridin-3-yl)-1H-indol-2-yl)-1H-indazol-5-yl)pyridin-3-yl)butanamide] are 1870 nM, 174 nM, 449 nM and 475 nM.
On to `O=C(Nc1cncc(-c2ccc3[nH]nc(-c4cc5c(-c6cccnc6)cccc5[nH]4)c3c2)c1)C1CCC1` [Compound 105, N-(5-(3-(4-(Pyridin-3-yl)-1H-indol-2-yl)-1H-indazol-5-yl)pyridin-3-yl) cyclobutanecarboxamide], for which the EC50 was 597 nM in the experiment with SW480 colon cancer cells, 174 nM with IL-6, 144 nM in experiment [1] and 110 nM in experiment [2].
Consider `CC(C)CC(=O)Nc1cncc(-c2ccc3[nH]nc(-c4cc5c(-c6ccncc6)cccc5[nH]4)c3c2)c1` [Compound 114, 3-Methyl-N-(5-(3-(4-(pyridin-4-yl)-1H-indol-2-yl)-1H-indazol-5-yl)pyridin-3-yl)butanamide], for which the half-maximal effective concentration (EC50) was determined as 1630 nM in the experiment on SW480 colon cancer cells, 306 nM in the experiment with IL-6, 331 nM in experiment [1] and 450 nM in experiment [2].
The matching figures for `CC(C)(C)C(=O)Nc1cncc(-c2ccc3[nH]nc(-c4cc5c(-c6ccncc6)cccc5[nH]4)c3c2)c1` [Compound 120, N-(5-(3-(4-(Pyridin-4-yl)-1H-indol-2-yl)-1H-indazol-5-yl)pyridin-3-yl) pivalamide]: 1450 nM, 445 nM, 218 nM and 600 nM.
As for `CC(C)CC(=O)Nc1cncc(-c2ccc3[nH]nc(-c4cc5c(-c6ccccn6)cccc5[nH]4)c3c2)c1` [Compound 142, 3-Methyl-N-(5-(3-(4-(pyridin-2-yl)-1H-indol-2-yl)-1H-indazol-5-yl)pyridin-3-yl)butanamide], the EC50 stood at 918 nM in the experiment on SW480 colon cancer cells, 164 nM in the experiment with IL-6, 312 nM in experiment [1] and 185 nM in experiment [2].
`CCNCc1cncc(-c2ccc3[nH]nc(-c4cc5c(-c6ccccn6)cccc5[nH]4)c3c2)c1` [Compound 146, N-((5-(3-(4-(Pyridin-2-yl)-1H-indol-2-yl)-1H-indazol-5-yl)pyridin-3-yl)methyl)ethanamine]: the EC50 in the experiment on SW480 colon cancer cells was 1000 nM; in the experiment on IL-6, 529 nM; in experiment [1], 1410 nM; in experiment [2], 525 nM.
The matching figures for `O=C(Nc1cncc(-c2ccc3[nH]nc(-c4cc5c(-c6ccccn6)cccc5[nH]4)c3c2)c1)C1CCCC1` [Compound 162, N-(5-(3-(4-(Pyridin-2-yl)-1H-indol-2-yl)-1H-indazol-5-yl)pyridin-3-yl) cyclopentanecarboxamide]: 1740 nM, 314 nM, 266 nM and 360 nM.
The corresponding values for `c1ccc(CNCc2cncc(-c3ccc4[nH]nc(-c5cc6c(-c7ccccn7)cccc6[nH]5)c4c3)c2)cc1` [Compound 164, N-Benzyl-1-(5-(3-(4-(pyridin-2-yl)-1H-indol-2-yl)-1H-indazol-5-yl)pyridin-3-yl)methanamine] are 2290 nM, 214 nM, 191 nM and 564 nM.
The corresponding values for `Cc1ccncc1-c1ccc2[nH]nc(-c3cc4c(N5CCCCC5)cccc4[nH]3)c2c1` [Compound 173, 5-(4-Methylpyridin-3-yl)-3-(4-(piperidin-1-yl)-1H-indol-2-yl)-1H-indazole] are 1980 nM, 4310 nM, 1780 nM and 865 nM.
